Data as given in the supplement of paper PMC12317010.
Structures can show the parent of a compound that is named as a salt.

Assay: collision cross section in nitrogen (drift tube, single-field); higher = larger gas-phase ion size
[1] = ion type: [M+H], ion source: ESI, ion mode: Positive
[2] = ion type: [M+Na], ion source: ESI, ion mode: Positive
[3] = ion type: [M-H], ion source: ESI, ion mode: Negative
[4] = ion type: [M+H], ion source: APCI, ion mode: Positive
[5] = ion type: [M+], ion source: APCI, ion mode: Positive
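Note: chemical standards at 10 µM analysed by drift tube IMS-QTOF MS in about 3.95 torr nitrogen, mean of duplicate injections differing ≤1%, mass error below 10 ppm.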

Row | collision cross section in nitrogen [1] [Å²] | collision cross section in nitrogen [2] [Å²] | collision cross section in nitrogen [3] [Å²] | collision cross section in nitrogen [4] [Å²] | SMILES | other results
1 |  | 151.6 |  |  | CC(C)(CO)COC(=O)C(C)(C)CO | 
2 | 186.1 | 191.7 | 190.5 |  | CCCc1c(OCCCOc2ccc(OCC(=O)O)cc2)ccc(C(C)=O)c1O | 
3 | 137.7 |  |  | 137 | CN1CCC[C@H]1c1cccnc1 [Nicotine sulfate (2:1)] | 
4 | 187.7 | 191.4 | 198.9 | 187.8 | Fc1ccccc1[C@@H](F)CO[C@H]1CC[C@H](Nc2[nH]cnc3nncc2-3)CC1 [MK-968] | 
5 |  |  | 203.1 |  | O=C(O)Cc1cc(I)c(Oc2cc(I)c(O)c(I)c2)c(I)c1 [Tetrac] | 
6 |  |  | 203.6 |  | CCc1cc(Cc2cc(CC)cc(C(C)(C)C)c2O)c(O)c(C(C)(C)C)c1 [2,2'-Methylenebis(ethyl-6-tert-butylphenol)] | 
7 |  |  | 127.9 |  | O=C(O)CCCCC(=O)O [Hexanedioic acid] | 
8 |  | 141.5 | 132.5 |  | OC[C@@H](O)[C@@H](O)[C@H](O)[C@H](O)CO [D-Mannitol] | 
9 |  |  | 164.6 |  | O=C(Nc1ccc([N+](=O)[O-])cc1Cl)c1cc(Cl)ccc1O [5-Chloro-N-(2-chloro-4-nitrophenyl)-2-hydroxybenzamide] | 
10 |  | 207 |  |  | CCCCOC(=O)CC(CC(=O)OCCCC)(OC(C)=O)C(=O)OCCCC [Acetyl tributyl citrate] | 
11 | 175.5 | 178.2 | 171 | 175.6 | Cc1cccc(Nc2cc(Cl)nc(SCC(=O)O)n2)c1C [[4-Chloro-6-(2,3-xylidino)-2-pyrimidinylthio]acetic acid] | 
12 |  |  | 185.7 | 183.4 | Cc1ccc2[nH]c3cc4c(=O)c5cc(C)ccc5[nH]c4cc3c(=O)c2c1 [C.I. Pigment Red 122] | 
13 | 263.3 | 259.8 | 252.1 | 263.2 | CC(C)(C)c1cc(CCC(=O)NCCCCCCNC(=O)CCc2cc(C(C)(C)C)c(O)c(C(C)(C)C)c2)cc(C(C)(C)C)c1O [Antioxidant 1098] | collision cross section in nitrogen [5]: 271.7 Å²
14 | 167.5 |  |  | 167.2 | CNc1ccc(NCCO)c2c1C(=O)c1ccccc1C2=O [C.I. Disperse Blue 3] | 
15 |  |  | 127.3 |  | Cc1cc(C)cc(O)c1 [3,5-Dimethylphenol] | 
16 | 145 |  |  |  | COc1cc(Cl)c(OC)cc1N [2,5-Dimethoxy-4-chloroaniline] | collision cross section in nitrogen [5]: 133 Å²
17 | 187.6 | 191.4 | 188.9 | 188 | Clc1ccc(Nc2nnc(Cc3ccncc3)c3ccccc23)cc1 [Vatalanib dihydrochloride] | 
18 |  |  | 142.4 |  | CNC(=O)Nc1ccc(Cl)c(Cl)c1 [N-(3,4-Dichlorophenyl)-N'-methylurea] | 
19 |  |  | 152.9 | 147.3 | COc1ccc(C(=O)c2ccccc2)c(O)c1 [2-Hydroxy-4-methoxybenzophenone] | 
20 |  | 181.2 | 184.8 |  | COc1cc(CCC(=O)CC(=O)CCc2ccc(O)c(OC)c2)ccc1O [Tetrahydrocurcumin] | 
21 |  |  | 124.3 |  | CCc1ccccc1O [2-Ethylphenol] | 
22 |  | 177.1 | 171.9 |  | CCOc1ccc(NC(=O)OC(C)C)cc1OCC [Diethofencarb] | 
23 |  |  |  |  | CCCCCCCCCCCC[N+](C)(C)Cc1ccccc1 [Benzalkonium chloride C12 (BAC C12)] | collision cross section in nitrogen (ion source: APCI, ion mode: Positive, ion type: [M]+ (permanent cation)): 193 Å²; collision cross section in nitrogen (ion source: ESI, ion mode: Positive, ion type: [M]+ (permanent cation)): 193.9 Å²
24 | 133.5 | 135.8 |  | 132.7 | NCCCN(CCO)CCO [2,2'-[(3-Aminopropyl)imino]diethanol] | 
25 | 162.5 |  |  | 162.3 | CN1CCc2cccc3c2[C@H]1Cc1ccc(O)c(O)c1-3 [Apomorphine hydrochloride] | 
26 | 156.2 |  |  | 155.8 | CN1Cc2c(N)cccc2C(c2ccccc2)C1 (stereo unspecified) [Nomifensine] | 
27 |  |  | 159.4 |  | Nc1ccc2c(S(=O)(=O)O)cccc2c1S(=O)(=O)O [1,5-Naphthalenedisulfonic acid, 2-amino-, sodium salt (1:1)] | 

Row | SMILES | collision cross section in nitrogen [1] [Å²] | collision cross section in nitrogen [2] [Å²] | collision cross section in nitrogen [3] [Å²] | collision cross section in nitrogen [4] [Å²] | other results
28 | O=C(NC(=O)c1c(F)cccc1F)Nc1cc(Cl)c(Oc2ncc(C(F)(F)F)cc2Cl)c(Cl)c1 [Chlorfluazuron] | 221.8 | 225.6 | 224.4 |  | 
29 | Oc1ccccc1-c1ccccc1 [Sodium 2-phenylphenate tetrahydrate] |  |  | 136.6 |  | 
30 | Oc1ccc(-c2ccccc2)cc1 [4-Phenylphenol] |  |  | 139.3 |  | 
31 | COc1nc(NC(C)C)nc(NC(C)C)n1 [Prometon] | 156.5 | 173.7 |  | 156.1 | 
32 | O=[PH]1Oc2ccccc2-c2ccccc21 (stereo unspecified) [6H-Dibenzo[c,e][1,2]oxaphosphinine 6-oxide] | 146.1 |  | 145.8 |  | 
33 | CCOC(=O)C(Cl)Cc1cc(-n2nc(C)n(C(F)F)c2=O)c(F)cc1Cl (stereo unspecified) [Carfentrazone-ethyl] | 180.3 | 187.9 |  |  | 
34 | O=[N+]([O-])O [Ammonium nitrate] |  |  | 104.5 |  | 
35 | CC1(C)CCC(=Cc2ccc(Cl)cc2)C1(O)Cn1cncn1 (stereo unspecified) [Triticonazole] | 180.6 | 189 |  | 181.7 | 
36 | O=Nc1ccc(Nc2ccccc2)cc1 [4-Nitrosodiphenylamine] | 144.2 |  | 144.7 | 144.3 | 
37 | c1cc(N(CC2CO2)CC2CO2)ccc1Cc1ccc(N(CC2CO2)CC2CO2)cc1 (stereo unspecified) [4,4'-Methylenebis(N,N-diglycidylaniline)] | 215.2 | 199.7 |  | 215.7 | 
38 | O=[N+]([O-])c1ccccc1O [Sodium 2-nitrophenolate] |  |  | 121.6 |  | 
39 | Oc1ccc(C2(c3ccc(O)cc3)c3ccccc3-c3ccccc32)cc1 [4,4'-(9H-Fluorene-9,9-diyl)diphenol] |  |  | 194.8 |  | 
40 | Cc1ccc(N)c([N+](=O)[O-])c1 [4-Methyl-2-nitroaniline] |  |  | 127.7 |  | 
41 | O=C1Nc2ccc(Cl)cc2C(c2ccccc2)=NC1O (stereo unspecified) [Oxazepam] | 163.7 | 180 | 162.7 | 163.5 | 
42 | COCC(=O)N(c1c(C)cccc1C)N1CCOC1=O [Oxadixyl] |  | 167.1 |  |  | 
43 | CCCCCCCCCCCCCOC(=O)c1ccccc1C(=O)OCCCCCCCCCCCCC [Ditridecyl phthalate (mixture of branched chain isomers)] |  | 244.3 |  |  | 
